Five molecules from patent EP0075104A2, “Cephalosporin derivatives, process for their preparation, pharmaceutical compositions containing them and intermediates” (F. HOFFMANN-LA ROCHE & CO. Aktiengesellschaft, priority 1981, dated 1983) can be followed below.

The test system of one series is Streptococcus pyogenes. Kind of series: Oral curative dose (CD50) in infected mice, Streptococcus pyogenes. Format: in vivo. The conditions noted are these: Maus, p.o., Erreger Streptococcus pyogenes, dose at which 50% of the tested mice survive. The source says:
(§1) Die orale antimikrobielle Wirksamkeit der erwähnten Produkte kann anhand von in-vivo-Versuchen an der Maus nachgewiesen werden. Im nachstehenden bedeutet die kurative Dosis (CD50, p.o., mg/kg) diejenige perorale Dosis, bei der 50% der getesteten Mäuse überleben.
(§2) Ergebnis (CD50, p.o. mg/kg)

The test system of the next series is Klebsiella pneumoniae. Kind of series: Oral curative dose (CD50) in infected mice, Klebsiella pneumoniae. The note with it: Maus, p.o., Erreger Klebsiella pneumoniae, dose at which 50% of the tested mice survive. Format: in vivo.
Excerpt: as §1, §2

A further series is described as follows: in vivo. The conditions noted are these: mouse, po.
Another series relates to Escherichia coli. Kind of series: Oral curative dose (CD50) in infected mice, Escherichia coli. Format: in vivo. The note with it: Maus, p.o., Erreger Escherichia coli, dose at which 50% of the tested mice survive.
Excerpt: as §1, §2

A further series has as its system Serratia marcescens. Kind of series: Oral curative dose (CD50) in infected mice, Serratia marcescens. Format: in vivo. The note with it: Maus, p.o., Erreger Serratia marcescens, dose at which 50% of the tested mice survive.
Excerpt: as §1, §2

Molecules are shown by their SMILES.

Regarding `CO/N=C(\C(=O)N[C@@H]1C(=O)N2C(C(=O)OCOC(=O)C(C)(C)C)=C(CSc3nnc(C(=O)OC)n3C)CS[C@H]12)c1csc(N)n1` [Produkt A, Methylen-(6R,7R)-7-[(Z)-2-(2-Amino-4-thiazolyl)-2-(methoxyimino)-acetamido]-3-[[[5-(methoxycarbonyl)-4-methyl-4H-1,2,4-triazol-3-yl]thio]methyl]-8-oxo-5-thia-l-azabicyclo-[4.2.0]oct-2-en-2-carboxylat-pivalat], the results for the ED50 in the series with Streptococcus pyogenes, in the series with Klebsiella pneumoniae and in the series on Escherichia coli were 1.8 mg/kg, 4.4 mg/kg and 0.11 mg/kg, respectively. Besides, the LD50 (as a rule, the dose at which mortality reaches 50%) at 24 h in the series “in vivo” was above 5000 mg/kg.
For `CO/N=C(\C(=O)N[C@@H]1C(=O)N2C(C(=O)OCOC(=O)C(C)(C)C)=C(CSc3nc(C(=O)OC)n(C(C(=O)OCOC(=O)C(C)(C)C)c4ccccc4)n3)CS[C@H]12)c1csc(N)n1` (stereo partly drawn) [Produkt B, Methylen-(6R,7R)-7-C(Z)-2-(2-Amino-4-thiazolyl)-2-(methoxyimino)-acetamido]-3-[[[5-(methoxycarbonyl)-1-[(DL)-α-[[(pivaloyloxy)-methoxy]carbonyl]benzyl]-1H-1,2,4-triazol-3-yl]thio]methyl]-8-oxo-5-thia-1-azabicyclo-[4.2.0]oct-2-en-2-carboxylat-pivalat], the ED50 (commonly the dose that gives a 50% effect, or the effect in half of the subjects) was above 25 mg/kg in the series with Serratia marcescens, above 6 mg/kg in the series on Streptococcus pyogenes, above 25 mg/kg in the series with Klebsiella pneumoniae and 5.5 mg/kg in the series on Escherichia coli.
On to `CO/N=C(\C(=O)N[C@@H]1C(=O)N2C(C(=O)OCOC(=O)C(C)(C)C)=C(CSc3nc(C(=O)OC)n(-c4ccccc4)n3)CS[C@H]12)c1csc(N)n1` [Produkt C, Methylen-(6R,7R)-7-[(Z)-2-(2-Amino-4-thiazolyl)-2-(methoxyimino)-acetamido]3-[[[5-(methoxycarbonyl)-1-phenyl-lH-1,2,4-triazol-3-yl]thio]methyl]-8-oxo-5-thia-1-azabicyclo-[4.2.0]oct-2-en-2-carboxylat-pivalat], for which the ED50 in the series with Serratia marcescens is above 25 mg/kg; with Streptococcus pyogenes, 2.4 mg/kg; in the series with Klebsiella pneumoniae it was above 12 mg/kg; in the series on Escherichia coli, 1.8 mg/kg. The same molecule yielded an LD50 at 24 h in the series “in vivo” above 5000 mg/kg.
In the case of `C=CCn1c(SCC2=C(C(=O)OCOC(=O)C(C)(C)C)N3C(=O)[C@@H](NC(=O)/C(=N\OC)c4csc(N)n4)[C@H]3SC2)nnc1C(=O)OC` [Produkt D], the ED50 with Serratia marcescens was 3.6 mg/kg; in the series with Streptococcus pyogenes, 1.3 mg/kg; in the series with Klebsiella pneumoniae, above 12 mg/kg; with Escherichia coli it was 0.11 mg/kg. The same molecule came in with an LD50 at 24 h in the series “in vivo” above 5000 mg/kg.
On to `CCCCn1c(SCC2=C(C(=O)OCOC(=O)C(C)(C)C)N3C(=O)[C@@H](NC(=O)/C(=N\OC)c4csc(N)n4)[C@H]3SC2)nnc1C(=O)OC` [Produkt E, Methylen-(6R,7R)-[(Z)-(2-Amino-4-thiazolyl)-2-(methoxyimino)-acetamido]-3-[[[4-(n-butyl)-5-(methoxycarbonyl)-4H-1,2,4-triazol-3-yl]-thio]methyl]-8-oxo-5-thia-1-azabicyclo[4.2.0]-oct-2-en-2-carboxylat-pivalat], for which the ED50 with Serratia marcescens was 37 mg/kg; in the series with Streptococcus pyogenes it was 3.5 mg/kg; with Klebsiella pneumoniae, above 12 mg/kg; with Escherichia coli, 1.1 mg/kg.
